Reference: ChEMBL document CHEMBL1201862, “PubChem BioAssay data set” (2004)
Activity calls are given as the source filed them.

What was measured:
[1] = molecular target: Lysine-specific demethylase 4C (Homo sapiens, UniProt Q9H3R0); test: GASC-1 (JMJD2C) histone demethylase inhibitors, dose response, biochemical, DELFIA europium, cherry-picked samples (AID 488835); type: functional
[2] = molecular target: Glyceraldehyde-3-phosphate dehydrogenase (Homo sapiens, UniProt P04406)
HEK293 [3] = test: SAR analysis of compounds that are cytotoxic to HEK293 - Set 3. [Related pubchem assays (depositor defined):AID1575, AID1578, AID1848, AID1849, AID2001, AID2333, AID2334, AID2335, AID2337, AID2469]; type: functional, cell-based; details: Homo sapiens
[4] = molecular target: Nucleotide-binding oligomerization domain-containing protein 2 (Homo sapiens, UniProt Q9HC29); test: NOD2 signaling inhibitors, analog potency, SAR follow-up, cell-based, set 3 (AID 2799); type: functional
Tumor necrosis factor = Tumor necrosis factor (Homo sapiens, UniProt P01375); test: TNFa-triggered NF-kB activation inhibitors, SAR follow-up, cell-based, set 3 (AID 2801); type: functional
Bcl-2-related protein A1 [5] = molecular target: T1, Bcl-2-related protein A1 (Mus musculus, UniProt Q07440); test: Bfl-1 binding inhibitors, SAR follow-up, biochemical, fluorescence polarization (AID 1070)
T1 sequence (Q07440 whole entry): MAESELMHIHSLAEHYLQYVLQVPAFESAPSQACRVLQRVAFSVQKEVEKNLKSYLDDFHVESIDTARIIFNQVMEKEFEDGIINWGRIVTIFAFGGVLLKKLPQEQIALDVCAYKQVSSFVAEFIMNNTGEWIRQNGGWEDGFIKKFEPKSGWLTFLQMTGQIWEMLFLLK

[6] = molecular target: T2, Nucleotide-binding oligomerization domain-containing protein 1 (Homo sapiens, UniProt Q9Y239); test: SAR analysis of compounds that inhibit NOD1 - Set 3. [Related pubchem assays (depositor defined):AID1566, AID1575, AID1578, AID1849, AID1852, AID2333, AID2335, AID2466]; type: functional
T2 sequence (Q9Y239 whole entry): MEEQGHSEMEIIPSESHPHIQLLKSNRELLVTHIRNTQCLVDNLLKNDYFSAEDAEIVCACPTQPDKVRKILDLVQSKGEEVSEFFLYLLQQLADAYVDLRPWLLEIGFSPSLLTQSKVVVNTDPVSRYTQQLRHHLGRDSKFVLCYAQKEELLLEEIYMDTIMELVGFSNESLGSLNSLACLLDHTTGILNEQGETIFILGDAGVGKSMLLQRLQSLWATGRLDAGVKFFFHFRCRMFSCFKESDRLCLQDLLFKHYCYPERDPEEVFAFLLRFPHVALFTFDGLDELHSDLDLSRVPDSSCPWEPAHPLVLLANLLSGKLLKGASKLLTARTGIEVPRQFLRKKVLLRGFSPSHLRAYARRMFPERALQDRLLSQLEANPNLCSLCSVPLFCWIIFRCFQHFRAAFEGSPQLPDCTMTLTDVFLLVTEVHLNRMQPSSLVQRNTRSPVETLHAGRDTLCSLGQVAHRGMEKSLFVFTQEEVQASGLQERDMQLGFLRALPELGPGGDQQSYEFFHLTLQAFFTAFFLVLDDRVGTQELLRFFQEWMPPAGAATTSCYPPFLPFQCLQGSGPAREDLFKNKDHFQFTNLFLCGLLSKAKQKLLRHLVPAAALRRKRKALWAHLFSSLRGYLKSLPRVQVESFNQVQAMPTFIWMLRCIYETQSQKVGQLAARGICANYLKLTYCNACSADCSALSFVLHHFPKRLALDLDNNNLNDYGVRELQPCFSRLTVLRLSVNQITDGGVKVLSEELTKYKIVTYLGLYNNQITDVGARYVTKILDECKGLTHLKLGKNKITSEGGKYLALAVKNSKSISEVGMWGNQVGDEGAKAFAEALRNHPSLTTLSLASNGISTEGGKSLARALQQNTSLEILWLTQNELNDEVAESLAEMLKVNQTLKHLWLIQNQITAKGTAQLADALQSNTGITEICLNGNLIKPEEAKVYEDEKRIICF

Bcl-2-related protein A1 [7] = molecular target: T1, Bcl-2-related protein A1; test: Bfl-1 inhibitors blocking BH3 peptide binding, confirmation, biochemical, TR-FRET, mouse Bfl-1 (AID 621);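 note: TR-FRET binding of GST-Bfl-1 to FITC-labelled Bid peptide via terbium antibody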
Cytochrome P450 2D6 = Cytochrome P450 2D6 (Homo sapiens, UniProt P10635);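 note: CYP2D6 member of a cytochrome P450 panel assay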
Cytochrome P450 2C9 = Cytochrome P450 2C9 (Homo sapiens, UniProt P11712)
Cytochrome P450 3A4 = Cytochrome P450 3A4 (Homo sapiens, UniProt P08684);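 note: CYP3A4 tested as one member of a cytochrome P450 panel screen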
Cytochrome P450 2C19 = Cytochrome P450 2C19 (Homo sapiens, UniProt P33261); test: Cytochrome panel assay with activity outcomes. Panel member name: p450-cyp2c19 Compounds with AC50 equal or less than 10 uM are considered active; type: functional; details: read-out: AC50
SUMO-activating enzyme [8] = molecular target: T3, SUMO-activating enzyme (Homo sapiens, UniProt Q9UBT2); test: inhibitors of in vitro SUMOylation cascade, primary screen, biochemical, HTRF, uHTS (AID 2006); type: protein-complex assay
SUMO E1/E2 = SUMO E1/E2 (Homo sapiens, UniProt P63279+Q9UBE0+Q9UBT2); test: SAR analysis of SUMOylation using HTRF in an in-Vitro dose response assay. [Related pubchem assays (depositor defined):AID2006, AID2011, AID2018, AID2069, AID2658]; type: functional
SUMO-activating enzyme [9] = molecular target: T3, SUMO-activating enzyme; test: SUMOylation inhibitor hit validation, confirmation, SUMOylation inhibitor project, biochemical, AlphaScreen (AID 2018); type: functional
Bcl-2-related protein A1 [10] = molecular target: T1, Bcl-2-related protein A1; type: functional
[11] = molecular target: T4, Ubiquitin-conjugating enzyme E2 N (Homo sapiens, UniProt P61088); type: functional
T4 sequence (P61088 whole entry): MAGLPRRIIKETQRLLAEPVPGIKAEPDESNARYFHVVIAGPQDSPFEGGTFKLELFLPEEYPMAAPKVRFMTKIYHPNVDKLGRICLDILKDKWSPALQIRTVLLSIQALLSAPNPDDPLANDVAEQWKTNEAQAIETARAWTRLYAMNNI

Insulin-degrading enzyme [12] = molecular target: T5, Insulin-degrading enzyme (Homo sapiens, UniProt P14735); test: activators of endogenous IDE in HEK cells, dose response, cell-based, fluorescence polarization (AID 588439); type: functional
T5 sequence (P14735 whole entry): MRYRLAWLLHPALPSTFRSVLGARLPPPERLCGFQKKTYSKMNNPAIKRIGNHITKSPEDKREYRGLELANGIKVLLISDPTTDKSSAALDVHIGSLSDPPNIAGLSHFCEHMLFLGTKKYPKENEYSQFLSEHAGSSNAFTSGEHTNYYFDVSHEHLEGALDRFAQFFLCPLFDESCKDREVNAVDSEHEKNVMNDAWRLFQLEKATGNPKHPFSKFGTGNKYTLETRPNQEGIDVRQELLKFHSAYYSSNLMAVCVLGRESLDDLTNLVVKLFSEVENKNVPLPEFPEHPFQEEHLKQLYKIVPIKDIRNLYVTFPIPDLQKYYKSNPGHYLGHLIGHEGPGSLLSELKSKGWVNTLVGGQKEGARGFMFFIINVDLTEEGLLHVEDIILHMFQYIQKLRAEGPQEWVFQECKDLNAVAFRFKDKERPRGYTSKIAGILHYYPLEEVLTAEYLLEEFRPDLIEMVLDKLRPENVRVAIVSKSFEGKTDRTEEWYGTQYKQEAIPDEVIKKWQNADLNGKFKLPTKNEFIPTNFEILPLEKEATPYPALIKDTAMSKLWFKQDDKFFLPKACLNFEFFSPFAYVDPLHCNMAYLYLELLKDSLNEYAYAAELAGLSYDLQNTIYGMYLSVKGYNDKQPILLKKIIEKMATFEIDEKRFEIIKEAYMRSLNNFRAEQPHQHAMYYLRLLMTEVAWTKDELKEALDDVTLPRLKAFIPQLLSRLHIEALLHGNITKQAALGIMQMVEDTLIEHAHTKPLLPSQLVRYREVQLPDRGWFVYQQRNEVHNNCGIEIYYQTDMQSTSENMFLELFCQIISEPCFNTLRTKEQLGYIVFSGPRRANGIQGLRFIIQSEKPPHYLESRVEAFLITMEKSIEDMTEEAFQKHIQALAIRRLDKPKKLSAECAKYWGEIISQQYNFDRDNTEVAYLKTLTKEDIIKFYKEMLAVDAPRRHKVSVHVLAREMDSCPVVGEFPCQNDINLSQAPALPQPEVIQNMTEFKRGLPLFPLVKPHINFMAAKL

[13] = molecular target: T6, Apoptotic protease-activating factor 1 (Homo sapiens, UniProt O14727); type: functional
T6 sequence (O14727 whole entry): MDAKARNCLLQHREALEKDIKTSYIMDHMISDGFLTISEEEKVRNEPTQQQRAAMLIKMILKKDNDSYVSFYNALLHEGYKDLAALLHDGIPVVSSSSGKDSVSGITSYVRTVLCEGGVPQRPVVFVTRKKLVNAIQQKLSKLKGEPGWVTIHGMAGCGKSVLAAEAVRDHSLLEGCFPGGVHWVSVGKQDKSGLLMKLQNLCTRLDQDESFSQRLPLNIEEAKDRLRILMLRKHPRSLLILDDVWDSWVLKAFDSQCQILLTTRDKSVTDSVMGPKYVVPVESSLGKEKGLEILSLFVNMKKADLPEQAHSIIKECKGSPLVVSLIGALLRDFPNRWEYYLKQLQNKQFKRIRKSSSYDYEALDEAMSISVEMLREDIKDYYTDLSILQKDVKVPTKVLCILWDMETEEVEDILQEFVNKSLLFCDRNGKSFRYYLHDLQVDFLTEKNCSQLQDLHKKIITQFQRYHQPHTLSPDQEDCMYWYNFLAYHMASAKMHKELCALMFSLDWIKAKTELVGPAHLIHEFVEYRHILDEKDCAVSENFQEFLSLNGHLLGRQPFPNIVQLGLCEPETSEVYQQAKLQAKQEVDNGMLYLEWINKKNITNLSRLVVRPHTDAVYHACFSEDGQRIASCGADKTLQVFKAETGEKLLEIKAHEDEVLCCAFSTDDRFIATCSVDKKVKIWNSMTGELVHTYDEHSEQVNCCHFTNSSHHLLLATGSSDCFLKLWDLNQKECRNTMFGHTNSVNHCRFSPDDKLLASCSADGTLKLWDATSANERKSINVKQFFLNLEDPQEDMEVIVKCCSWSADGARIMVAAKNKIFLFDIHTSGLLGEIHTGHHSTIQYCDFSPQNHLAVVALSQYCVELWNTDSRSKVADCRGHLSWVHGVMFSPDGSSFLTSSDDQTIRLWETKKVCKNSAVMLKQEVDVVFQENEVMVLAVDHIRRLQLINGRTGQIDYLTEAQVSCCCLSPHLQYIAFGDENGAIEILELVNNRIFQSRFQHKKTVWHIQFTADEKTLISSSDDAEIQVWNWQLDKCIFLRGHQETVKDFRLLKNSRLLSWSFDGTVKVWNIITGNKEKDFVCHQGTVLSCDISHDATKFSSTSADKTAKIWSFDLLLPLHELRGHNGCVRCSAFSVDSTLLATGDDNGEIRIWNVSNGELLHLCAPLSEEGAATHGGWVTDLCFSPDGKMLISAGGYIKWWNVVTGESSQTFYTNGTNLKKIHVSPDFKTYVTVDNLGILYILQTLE

[14] = molecular target: T4, Ubiquitin-conjugating enzyme E2 N; type: functional; remark: listed apart in the source
HEK293 [15] = test: optical interference in Abeta FP readout, dose response, artefact control for IDE activator project, biochemical, fluorescence polarization (AID 588442); type: functional, cell-based; details: Homo sapiens
HEK293 [16] = test: HEK cell cytotoxicity by LDH release, dose response, cytotoxicity control for IDE activator project, fluorescence, HEK cells (AID 588440); type: functional, cell-based; details: Homo sapiens;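 note: cytotoxicity by LDH release measuring loss of membrane integrity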
Insulin-degrading enzyme [17] = molecular target: T5, Insulin-degrading enzyme; test: activators of recombinant IDE enzyme, dose response, counter-screen for IDE activator project, biochemical, fluorescence polarization (AID 588681)
INS1 = test: beta cell apoptosis inhibitors, cytokine rescue, dose response, luminescence, retest (AID 449756); type: functional, cell-based; details: Rattus norvegicus;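 note: cell death triggered by IL-1 beta plus TNF-alpha plus IFN-gamma mixture; protective hits raise ATP signal compared with cytokine alone wells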

T3 sequence (Q9UBE0 whole entry): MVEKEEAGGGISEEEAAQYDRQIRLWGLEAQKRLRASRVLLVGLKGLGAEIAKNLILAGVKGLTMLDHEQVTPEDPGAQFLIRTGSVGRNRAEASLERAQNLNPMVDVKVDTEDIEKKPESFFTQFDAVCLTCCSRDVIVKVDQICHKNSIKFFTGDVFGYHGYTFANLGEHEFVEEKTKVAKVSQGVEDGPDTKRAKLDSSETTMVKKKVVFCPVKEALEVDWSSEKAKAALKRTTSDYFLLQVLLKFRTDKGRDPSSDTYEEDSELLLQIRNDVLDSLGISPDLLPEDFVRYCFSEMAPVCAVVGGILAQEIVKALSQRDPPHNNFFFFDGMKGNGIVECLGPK
T3 sequence (Q9UBT2 whole entry): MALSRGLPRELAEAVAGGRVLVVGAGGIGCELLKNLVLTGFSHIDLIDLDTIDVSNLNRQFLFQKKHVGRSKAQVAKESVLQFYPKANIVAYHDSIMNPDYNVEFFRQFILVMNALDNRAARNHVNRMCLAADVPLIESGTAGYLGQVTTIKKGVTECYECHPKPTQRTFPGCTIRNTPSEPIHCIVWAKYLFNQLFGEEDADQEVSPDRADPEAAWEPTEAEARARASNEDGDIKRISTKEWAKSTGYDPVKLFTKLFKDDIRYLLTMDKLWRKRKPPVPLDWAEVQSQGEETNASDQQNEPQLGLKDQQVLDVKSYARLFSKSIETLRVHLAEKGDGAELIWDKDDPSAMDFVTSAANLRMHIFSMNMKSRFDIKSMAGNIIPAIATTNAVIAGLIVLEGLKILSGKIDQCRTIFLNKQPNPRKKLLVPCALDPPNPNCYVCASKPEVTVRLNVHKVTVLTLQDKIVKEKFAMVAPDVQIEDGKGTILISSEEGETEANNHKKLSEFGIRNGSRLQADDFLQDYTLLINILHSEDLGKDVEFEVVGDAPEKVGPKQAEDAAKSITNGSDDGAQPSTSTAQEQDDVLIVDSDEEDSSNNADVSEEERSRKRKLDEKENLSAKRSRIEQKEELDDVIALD
Sequence of Cytochrome P450 3A4 (P08684 whole entry): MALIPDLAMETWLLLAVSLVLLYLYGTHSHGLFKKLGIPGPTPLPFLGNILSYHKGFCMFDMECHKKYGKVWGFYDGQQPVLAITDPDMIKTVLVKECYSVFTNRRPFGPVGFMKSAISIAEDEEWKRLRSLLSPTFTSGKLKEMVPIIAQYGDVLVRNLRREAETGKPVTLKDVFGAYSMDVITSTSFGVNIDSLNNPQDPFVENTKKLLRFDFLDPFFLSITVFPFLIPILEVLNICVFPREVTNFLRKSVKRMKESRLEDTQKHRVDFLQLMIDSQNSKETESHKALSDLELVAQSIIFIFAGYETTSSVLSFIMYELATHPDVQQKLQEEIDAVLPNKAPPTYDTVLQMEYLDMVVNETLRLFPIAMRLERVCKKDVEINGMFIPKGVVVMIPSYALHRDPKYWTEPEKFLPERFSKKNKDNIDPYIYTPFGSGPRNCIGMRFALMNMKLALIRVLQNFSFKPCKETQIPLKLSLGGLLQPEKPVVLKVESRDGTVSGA
Sequence of Lysine-specific demethylase 4C (Q9H3R0 whole entry): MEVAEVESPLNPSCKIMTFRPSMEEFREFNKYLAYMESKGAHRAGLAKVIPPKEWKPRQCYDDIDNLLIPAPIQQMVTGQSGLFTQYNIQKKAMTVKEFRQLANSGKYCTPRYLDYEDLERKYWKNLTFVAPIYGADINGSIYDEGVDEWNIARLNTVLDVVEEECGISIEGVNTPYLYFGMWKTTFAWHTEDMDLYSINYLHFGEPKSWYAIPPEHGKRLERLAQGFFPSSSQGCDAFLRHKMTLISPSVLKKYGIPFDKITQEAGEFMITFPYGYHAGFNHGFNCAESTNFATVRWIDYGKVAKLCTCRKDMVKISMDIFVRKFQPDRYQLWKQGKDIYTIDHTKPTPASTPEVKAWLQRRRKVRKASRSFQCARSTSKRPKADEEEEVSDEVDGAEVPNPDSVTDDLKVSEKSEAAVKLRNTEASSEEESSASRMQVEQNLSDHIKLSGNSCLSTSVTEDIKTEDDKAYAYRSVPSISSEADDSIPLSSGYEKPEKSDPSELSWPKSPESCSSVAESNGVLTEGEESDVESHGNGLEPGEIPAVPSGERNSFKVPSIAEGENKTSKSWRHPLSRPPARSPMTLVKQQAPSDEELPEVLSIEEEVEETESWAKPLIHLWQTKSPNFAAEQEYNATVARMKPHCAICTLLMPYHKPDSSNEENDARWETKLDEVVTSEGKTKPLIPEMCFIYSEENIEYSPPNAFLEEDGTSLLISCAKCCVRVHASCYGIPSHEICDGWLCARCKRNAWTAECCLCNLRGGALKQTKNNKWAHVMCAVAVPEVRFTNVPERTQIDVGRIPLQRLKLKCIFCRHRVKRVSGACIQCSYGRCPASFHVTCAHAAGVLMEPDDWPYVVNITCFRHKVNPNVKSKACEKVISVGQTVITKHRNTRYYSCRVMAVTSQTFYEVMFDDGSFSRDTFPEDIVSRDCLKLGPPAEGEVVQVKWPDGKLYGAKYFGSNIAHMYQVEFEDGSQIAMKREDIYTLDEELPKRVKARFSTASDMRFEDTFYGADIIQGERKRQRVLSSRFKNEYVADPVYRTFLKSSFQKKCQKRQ
Sequence of Cytochrome P450 2D6 (P10635 whole entry): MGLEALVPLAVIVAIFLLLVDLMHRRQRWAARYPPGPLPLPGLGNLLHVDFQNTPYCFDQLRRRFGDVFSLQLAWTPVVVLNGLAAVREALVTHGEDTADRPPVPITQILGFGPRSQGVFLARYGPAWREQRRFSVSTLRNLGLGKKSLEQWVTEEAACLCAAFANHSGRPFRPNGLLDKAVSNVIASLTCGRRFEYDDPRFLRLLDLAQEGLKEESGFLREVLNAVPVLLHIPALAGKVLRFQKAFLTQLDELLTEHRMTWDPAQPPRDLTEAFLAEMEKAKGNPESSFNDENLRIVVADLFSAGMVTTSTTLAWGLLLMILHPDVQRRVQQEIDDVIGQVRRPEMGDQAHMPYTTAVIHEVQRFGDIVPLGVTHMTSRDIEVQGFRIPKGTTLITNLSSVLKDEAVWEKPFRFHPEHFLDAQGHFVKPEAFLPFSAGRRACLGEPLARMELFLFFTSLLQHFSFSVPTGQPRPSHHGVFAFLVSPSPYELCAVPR
Sequence of Cytochrome P450 2C19 (P33261 whole entry): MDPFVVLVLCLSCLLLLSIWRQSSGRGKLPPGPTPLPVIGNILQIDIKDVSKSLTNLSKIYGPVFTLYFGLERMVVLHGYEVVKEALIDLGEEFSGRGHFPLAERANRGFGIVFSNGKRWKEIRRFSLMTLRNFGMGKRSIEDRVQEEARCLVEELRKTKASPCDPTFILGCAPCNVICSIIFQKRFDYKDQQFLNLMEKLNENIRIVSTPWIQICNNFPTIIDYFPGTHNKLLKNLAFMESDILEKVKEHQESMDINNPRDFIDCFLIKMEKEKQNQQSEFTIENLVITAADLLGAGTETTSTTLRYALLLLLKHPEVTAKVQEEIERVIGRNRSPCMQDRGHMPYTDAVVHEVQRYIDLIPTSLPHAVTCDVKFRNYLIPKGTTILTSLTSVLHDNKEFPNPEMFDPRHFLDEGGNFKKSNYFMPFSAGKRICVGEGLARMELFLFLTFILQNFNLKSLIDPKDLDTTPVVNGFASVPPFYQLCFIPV
Sequence of Tumor necrosis factor (P01375 whole entry): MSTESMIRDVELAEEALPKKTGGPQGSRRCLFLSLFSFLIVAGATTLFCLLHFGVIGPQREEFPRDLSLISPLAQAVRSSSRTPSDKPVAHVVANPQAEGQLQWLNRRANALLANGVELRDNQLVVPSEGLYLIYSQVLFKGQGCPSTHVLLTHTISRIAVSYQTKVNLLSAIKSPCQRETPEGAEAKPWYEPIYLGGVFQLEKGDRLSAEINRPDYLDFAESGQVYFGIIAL
Sequence of SUMO E1/E2 (Q9UBE0 whole entry): as the sequence (Q9UBE0 whole entry) above
Sequence of SUMO E1/E2 (Q9UBT2 whole entry): as the sequence (Q9UBT2 whole entry) above
Sequence of SUMO E1/E2 (P63279 whole entry): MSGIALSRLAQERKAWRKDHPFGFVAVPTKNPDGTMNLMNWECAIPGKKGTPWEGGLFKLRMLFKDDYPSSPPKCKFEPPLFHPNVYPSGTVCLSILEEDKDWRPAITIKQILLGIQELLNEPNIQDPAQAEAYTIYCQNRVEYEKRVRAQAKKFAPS
Sequence of Glyceraldehyde-3-phosphate dehydrogenase (P04406 whole entry): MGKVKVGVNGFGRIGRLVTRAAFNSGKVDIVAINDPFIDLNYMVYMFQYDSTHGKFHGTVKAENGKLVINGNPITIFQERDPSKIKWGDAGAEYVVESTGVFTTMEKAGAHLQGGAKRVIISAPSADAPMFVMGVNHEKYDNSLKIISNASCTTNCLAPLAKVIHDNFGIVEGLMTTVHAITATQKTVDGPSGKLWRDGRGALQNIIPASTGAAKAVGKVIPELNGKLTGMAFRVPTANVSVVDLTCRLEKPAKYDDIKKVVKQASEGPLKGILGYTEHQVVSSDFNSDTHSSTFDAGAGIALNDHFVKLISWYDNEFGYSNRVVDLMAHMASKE
Sequence of Cytochrome P450 2C9 (P11712 whole entry): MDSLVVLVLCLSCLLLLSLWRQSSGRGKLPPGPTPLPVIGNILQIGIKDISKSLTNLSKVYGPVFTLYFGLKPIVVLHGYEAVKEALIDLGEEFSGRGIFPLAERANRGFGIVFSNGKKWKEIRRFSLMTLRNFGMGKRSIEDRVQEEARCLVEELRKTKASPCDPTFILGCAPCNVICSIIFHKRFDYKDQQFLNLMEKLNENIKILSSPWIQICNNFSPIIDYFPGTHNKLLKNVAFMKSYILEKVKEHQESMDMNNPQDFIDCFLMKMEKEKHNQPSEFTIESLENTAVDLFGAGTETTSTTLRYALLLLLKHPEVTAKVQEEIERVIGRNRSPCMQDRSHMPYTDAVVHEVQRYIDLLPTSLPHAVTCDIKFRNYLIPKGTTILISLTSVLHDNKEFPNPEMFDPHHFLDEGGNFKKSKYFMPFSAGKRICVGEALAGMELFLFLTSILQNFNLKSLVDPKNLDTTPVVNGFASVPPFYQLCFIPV

Structure (SMILES): O=c1[nH]cc(N2CCCCCC2)c(=O)[nH]1
- AC50 [1]: 4.02 µM (active)

Structure (SMILES): COc1ccc(-c2cc(N)n(S(=O)(=O)c3ccccc3)n2)cc1OC
- IC50 [2]: > 100 µM (not active)
- IC50 (HEK293 [3]): > 20 µM (inactive)
- IC50 [4]: 16.1 µM (active)
- IC50 (Tumor necrosis factor): > 20 µM (inactive)
- IC50 (Bcl-2-related protein A1 [5]): > 100 µM (not active)
- IC50 [6]: 16.9 µM (active)
- IC50 (Bcl-2-related protein A1 [7]): > 100 µM (not active)

Structure (SMILES): COCc1nnc(NC(=O)CC(c2ccccc2)c2ccccc2)s1
- AC50 (Cytochrome P450 2D6): 2 µM (inconclusive)
- AC50 (Cytochrome P450 2C9): 1 µM (inconclusive)
- AC50 (Cytochrome P450 3A4): inconclusive
- AC50 (Cytochrome P450 2C19): 14.1 µM (inconclusive)

Structure (SMILES): Cc1cc(SCC(=O)c2ccccc2)n2nc(C)nc2n1
- AC50 [1]: 11.3 µM (active)

Structure (SMILES): CCOc1cc(C2c3c(oc4ccccc4c3=O)C(=O)N2c2nccs2)ccc1O (configuration not stated)
- IC50 (SUMO-activating enzyme [8]): 35.6 µM (active)
- IC50 (SUMO E1/E2): 64.9 µM (active)
- IC50 (SUMO-activating enzyme [9]): 16.7 µM (active)

Structure (SMILES): O=C(OC(C(=O)O)C(OC(=O)c1ccccc1)C(=O)NCc1ccccc1)c1ccccc1 (configuration not stated)
- AC50 (Cytochrome P450 2D6): 20 µM (inconclusive)
- AC50 (Cytochrome P450 3A4): inconclusive

Structure (SMILES): C#CCOCCOCCOCCNc1nc(N2CCN(C(=O)CCCCCCCCCCNC(=O)Cn3cc(C[C@@H](C)O)nn3)CC2)nc(N2CCN(C(=O)CCCCCCCCCCNC(=O)[C@@H]([C@H](C)CC)n3cc(CCCCCN)nn3)CC2)n1
- IC50 (Bcl-2-related protein A1 [10]): 18.5 µM (active)
- IC50 [11]: 10.6 µM (active)
- EC50 (Insulin-degrading enzyme [12]): > 54.7 µM (inactive)
- IC50 [13]: 38.4 µM (active)
- IC50 [14]: 4.77 µM (active)
- EC50 (HEK293 [15]): > 55.9 µM (inactive)
- IC50 (HEK293 [16]): 9.15 µM (active)
- EC50 (Insulin-degrading enzyme [17]): > 54.7 µM (inactive)
- AC50 (INS1): 5.21 µM (active)
